This note sets out measurements from patent US6867207B2, “IL-5 inhibiting 6-azauracil derivatives” (Janssen Pharmaceutica N.V., priority 1997, dated 2005).

The structures appear in SMILES notation.

One test relates to IL-5 production. The test is described as follows: In vitro inhibition of IL-5 production in human blood (phytohemagglutinin-stimulated whole blood, ELISA).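 Also: values marked with an asterisk were tested at 10 µM and unmarked values at 1 µM.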 In kind it is cell-based. The conditions noted are these: test dose 1×10^−6 M, 48 hours. The procedure, abridged:
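Heparinised blood from healthy male donors, diluted threefold in RPMI 1640, preincubated 60 min at 37° C with compound (0.02% DMSO vehicle), then stimulated with 2 μg/mL phytohemagglutinin for 48 h. Supernatant IL-5 measured by ELISA; percentage inhibition at 1×10^−6 M or 1×10^−5 M.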
`CN(C)c1ccc(-c2nnc(C(c3ccc(Cl)cc3)c3c(Cl)cc(-n4ncc(=O)[nH]c4=O)cc3Cl)o2)cc1` (racemic) [Compound 180]: the “% inh. (percentage inhibition of IL-5 production)” value stood at 54%.
On the same count and under the same terms, then `CCOCCc1nnc(C(c2ccc(Cl)cc2)c2c(Cl)cc(-n3ncc(=O)[nH]c3=O)cc2Cl)o1` (racemic) [Compound 181], with 55%.
Turning to `CN(C)c1cccc(-c2nnc(C(c3ccc(Cl)cc3)c3c(Cl)cc(-n4ncc(=O)[nH]c4=O)cc3Cl)o2)c1` (racemic) [Compound 182], the “% inh. (percentage inhibition of IL-5 production)” value turned out to be 75%.
Same read-out and setting: under `Nc1ccc(-c2nnc(C(c3ccc(Cl)cc3)c3c(Cl)cc(-n4ncc(=O)[nH]c4=O)cc3Cl)o2)cc1` (racemic) [Compound 184] stands 83%; under `[N-]=[N+]=Nc1ccc(-c2nnc(C(c3ccc(Cl)cc3)c3c(Cl)cc(-n4ncc(=O)[nH]c4=O)cc3Cl)o2)cc1` (racemic) [Compound 185], 81%.
As for `CCOC(=O)c1nnc(C(c2ccc(Cl)cc2)c2c(Cl)cc(-n3ncc(=O)[nH]c3=O)cc2Cl)o1` (racemic) [Compound 186], the “% inh. (percentage inhibition of IL-5 production)” value was determined as 8%.
On the same count and under the same terms, then `O=c1cnn(-c2cc(Cl)c(C(c3ccc(Cl)cc3)c3nnc(CCOc4ccccc4)o3)c(Cl)c2)c(=O)[nH]1` (racemic) [Compound 187], with 25%; and `Cc1ccccc1-c1nnc(C(c2ccc(Cl)cc2)c2c(Cl)cc(-n3ncc(=O)[nH]c3=O)cc2Cl)o1` (racemic) [Compound 188], with 95%; and `CCOC(=O)N1CCC(c2nnc(C(c3ccc(Cl)cc3)c3c(Cl)cc(-n4ncc(=O)[nH]c4=O)cc3Cl)o2)CC1` (racemic) [Compound 191], with 19%.
For `CN1CCC(c2nnc(C(c3ccc(Cl)cc3)c3c(Cl)cc(-n4ncc(=O)[nH]c4=O)cc3Cl)o2)CC1` (racemic) [Compound 195], the “% inh. (percentage inhibition of IL-5 production)” value is reported as 7%.
Same read-out and setting: then `CN(C)Cc1nnc(C(c2ccc(Cl)cc2)c2c(Cl)cc(-n3ncc(=O)[nH]c3=O)cc2Cl)o1` (racemic) [Compound 198], with 46%; and `CN1CCN(c2ccc(-c3nnc(C(c4ccc(Cl)cc4)c4c(Cl)cc(-n5ncc(=O)[nH]c5=O)cc4Cl)o3)cc2)CC1` (racemic) [Compound 199], with 43%.
The same measure, in the same setting: under `O=c1cnn(-c2cc(Cl)c(C(c3ccc(Cl)cc3)c3nnc(-c4cccc(O)c4)o3)c(Cl)c2)c(=O)[nH]1` (racemic) [Compound 200] stands 43%.
Still for that read-out and setting: under `O=c1cnn(-c2cc(Cl)c(C(c3ccc(Cl)cc3)c3nnc(-c4cccnc4)o3)c(Cl)c2)c(=O)[nH]1` (racemic) [Compound 201] stands 87%; under `Cc1ccsc1-c1nnc(C(c2ccc(Cl)cc2)c2c(Cl)cc(-n3ncc(=O)[nH]c3=O)cc2Cl)o1` (racemic) [Compound 203], 82%; under `CS(=O)(=O)c1cccc(-c2nnc(C(c3ccc(Cl)cc3)c3c(Cl)cc(-n4ncc(=O)[nH]c4=O)cc3Cl)o2)c1` (racemic) [Compound 205], 80%.
With `CC(c1ccc(Cl)cc1)(c1nnc(-c2ccccc2)o1)c1c(Cl)cc(-n2ncc(=O)[nH]c2=O)cc1Cl` (racemic) [Compound 206], the “% inh. (percentage inhibition of IL-5 production)” value came out at 82%.
Consider `Cc1ccoc1-c1nnc(C(c2ccc(Cl)cc2)c2c(Cl)cc(-n3ncc(=O)[nH]c3=O)cc2Cl)o1` (racemic) [Compound 207], for which the “% inh. (percentage inhibition of IL-5 production)” value was 94%.
`CS(=O)(=O)Nc1cccc(-c2nnc(C(c3ccc(Cl)cc3)c3c(Cl)cc(-n4ncc(=O)[nH]c4=O)cc3Cl)o2)c1` (racemic) [Compound 208]: the “% inh. (percentage inhibition of IL-5 production)” value is 48%.
On the same count and under the same terms, under `O=c1cnn(-c2cc(Cl)c(C(c3ccc(Cl)cc3)c3nnc(-c4ccccc4[N+](=O)[O-])o3)c(Cl)c2)c(=O)[nH]1` (racemic) [Compound 210] stands 79%.
Turning to `Nc1ccccc1-c1nnc(C(c2ccc(Cl)cc2)c2c(Cl)cc(-n3ncc(=O)[nH]c3=O)cc2Cl)o1` (racemic) [Compound 211], the “% inh. (percentage inhibition of IL-5 production)” value stood at 83%.
The same measure, in the same setting: then `O=C(CO)Nc1cccc(-c2nnc(C(c3ccc(Cl)cc3)c3c(Cl)cc(-n4ncc(=O)[nH]c4=O)cc3Cl)o2)c1` (racemic) [Compound 215], with 54%.
`Cc1c(NS(N)(=O)=O)cccc1-c1nnc(C(c2ccc(Cl)cc2)c2c(Cl)cc(-n3ncc(=O)[nH]c3=O)cc2Cl)o1` (racemic) [Compound 218]: the “% inh. (percentage inhibition of IL-5 production)” value was determined as 4%.
As to `CCOC(=O)C(=O)Nc1cccc(-c2nnc(C(c3ccc(Cl)cc3)c3c(Cl)cc(-n4ncc(=O)[nH]c4=O)cc3Cl)o2)c1.O` (racemic) [Compound 219], the “% inh. (percentage inhibition of IL-5 production)” value was 8%.
Same read-out and setting: under `CCOC(=O)N1CCC(NC(=S)Nc2cccc(-c3nnc(C(c4ccc(Cl)cc4)c4c(Cl)cc(-n5ncc(=O)[nH]c5=O)cc4Cl)o3)c2)CC1` (racemic) [Compound 220] stands 25%; under `NS(=O)(=O)Nc1cccc(-c2nnc(C(c3ccc(Cl)cc3)c3c(Cl)cc(-n4ncc(=O)[nH]c4=O)cc3Cl)o2)c1.O` (racemic) [Compound 221], −2%.
The same measure, in the same setting: under `Cl.O=c1cnn(-c2cc(Cl)c(C(c3ccc(Cl)cc3)c3nc(C4CCNCC4)cs3)c(Cl)c2)c(=O)[nH]1` (racemic) [Compound 230, (±)-2-[3,5-dichloro-4-[(4-chlorophenyl)[4-(4-piperidinyl)-2-thiazolyl]methyl]phenyl]-1,2,4-triazin-3,5-(2H,4H)-dione monohydrochloride] stands 79%; under `CC(C)c1sc(C(c2ccc(Cl)cc2)c2c(Cl)cc(-n3ncc(=O)[nH]c3=O)cc2Cl)nc1-c1ccccc1` (racemic) [Compound 241, (±)-2-[3,5-dichloro-4-[(4-chlorophenyl)[5-(1-methylethyl)-4-phenyl-2-thiazolyl]methyl]-phenyl-1,2,4-triazin-3,5(2H,4H)-dione], 95%; under `O=c1cnn(-c2cc(Cl)c(C(c3ccc(Cl)cc3)c3nc(-c4ccccc4)c(CNC(=S)Nc4ccccc4)s3)c(Cl)c2)c(=O)[nH]1` (racemic) [Compound 331, (±)-N-[[2-[(4-chlorophenyl)[2,6-dichloro-(4,5-dihydro-3,5-dioxo-1,2,4-triazin-2(3H)-yl)phenyl]methyl]4-phenyl-5-thiazolyl]methyl]-N′-phenyl-thiourea], 95%.
The same measure, in the same setting: under `Cc1nc(SC(c2ccc(Cl)cc2)c2ccc(-n3ncc(=O)[nH]c3=O)cc2Cl)nc(O)c1CC1CC1` (racemic) [Compound 338] stands −15%.

The test is the same for the next values; noted with them: test dose 1×10^−6 M, 48 hours, read-out: % inh. (percentage inhibition of IL-5 production).
A word on the inhibition: it is the share of the control response that was lost under treatment. Turning to `[N-]=[N+]=Nc1cccc(-c2nnc(C(c3ccc(Cl)cc3)c3c(Cl)cc(-n4ncc(=O)[nH]c4=O)cc3Cl)o2)c1` (racemic) [Compound 194, (±)-2-[4-[[5-(3-azidophenyl)-1,3,4-oxadiazol-2-yl](4-chlorophenyl)methyl]-3,5-dichlorophenyl]-1,2,4-triazine-3,5(2H,4H)-dione], the inhibition at 1 µM worked out at 83%.
